From US8252543B2, “Method for detecting candidate alzheimer's disease drug” (Tomohiro Chiba, priority 2006, dated 2012)
Entries after “also recorded” stand apart in the source; their conditions may differ. Where no end group is shown, it is not given here.

Assays:
[1] = test system: STAT3; assay: STAT3 phosphorylation in PC12 cells (immunoblot); type: cell-based; details: CNTF 50 ng/ml, IL-6 50 ng/ml, Colivelin 100 pM
Description: (§1) To examine the ability of Colivelin to phosphorylate STAT3 in vivo, a solvent (FIGS. 3A and 3C) or Colivelin (FIGS. 3B and 3D) was administered transnasally to mice twice at 24 hours-intervals. Brain samples were collected 30 minutes after the final administration, and then fresh frozen sections were prepared therefrom. The sections were then stained with an anti-phospho-STAT3 antibody. […] To examine the effect of Colivelin to phosphorylate STAT3 in vitro, PC12 cells were treated with a vehicle (MQ), CNTF, IL-6, Humanin (HN), D-Ser14-HN (D-14), and Colivelin (Col) for […] for stimulation. Phosphorylated STAT3 and total STAT3 were detected by an immunoblot method (FIG. 3E).
PC12 cells were cultured in DNEM (Wako) containing 10% serum (10%-DMEM). For phosphorylation analysis, PC12 cells (cultured at 1.6×10^5 cells/well in a 6-well plate containing serum-free DMEM for 24 hours) were stimulated with a ciliary neurotrophic factor (CNTF, 50 ng/ml), interleukin-6 (IL-6, 50 ng/ml), HN ([…], D-Ser14-HN (D-14, 10 μM, and Colivelin (100 pM) for 15 minutes. Cells were rinsed once with PBS and then lysed in a buffer solution containing phosphatase inhibitors (50 mM Tris HCl [pH7.4], 150 mM NaCl, 1% Triton-X 100, protease inhibitors, 1 mM EDTA, and phosphatase inhibitor cocktails 1 and 2 [Sigma]). Collected samples were separated by normal SDS-PAGE and were then electrically blotted onto PVDF membranes. Detection was performed using an anti-phospho-STAT3 (1:500 dilution) antibody and horseradish peroxidase (HRP)-labeled anti-rabbit IgG antibody (BioRad Laboratories, Hercules, Calif., U.S.A.). Immunoreactive bands were visualized using ECL Western Blotting Detection Reagents (Amersham Bioscience, Uppsala, Sweden). Immunoreactive bands corresponding to total-STAT3 antibody (1:3000 dilution) were subjected to detection on the identical membrane stripped and then determined to be controls.

[2] = test system: STAT3; assay: STAT3 phosphorylation in mouse brain after transnasal Colivelin (anti-phospho-STAT3 immunohistochemistry); type: in vivo; details: mice, transnasal twice at 24 hours-intervals, brain collected 30 minutes after final administration, vs vehicle
Description: as §1
Immunohistochemical analysis was performed as described in the document (Yamada M et al., Behav Brain Res (2005) 164: 139-146; Chiba T et al., J Neurosci (2005) 25: 10252-10261). Mice were transcardially perfused with phosphate buffered saline (PBS) and then perfused with 4% paraformaldehyde (PFA). Paraffine-embedded sections or fresh frozen sections, each having a thickness of 10 μm, were prepared. […]
We confirmed STAT3 activation in the brains of mice to which Colivelin had been nasally administered twice every 24 hours (FIGS. 3A-D). […] After 3 weeks of administration (administered every other day), their cognitive functions were analyzed by YM, water-finding task (WFT), and elevated-plus maze (EPM). […]

[3] = test system: Tg2576 mice; assay: Y-maze test (YM) in Tg2576 mice; type: in vivo; details: Tg2576 mice 15 months of age, nasal administration for 3 weeks (every other day)
Description: (§2) Tg2576 mice and wild-type control mice at 15 months of age were tested by Y-maze test (YM) (FIG. 4A, left). […] Mice were then subjected to nasal administration of Colivelin or a vehicle for 3 weeks. Subsequently, mice were again tested by Y-maze test. […] However, Colivelin administration seemed to ameliorate tendencies observed in Tg2576 to which the vehicle had been administered, such as delay in transfer latency, shortened 1 stay, and prolonged time spent in open arm (difficult to fear).
(§3) Y-maze test (YM) was performed as described in the document (Yamada M et al., Behav Brain Res (2005) 164: 139-146). The apparatus for YM is composed of three grey plastic arms (40 cm long, 12 cm high, 3 cm wide at the bottom, and 10 cm wide at the top). Mice were each allowed to explore the maze freely under observation for 8 minutes. Spontaneous alternation behavior % (SA %) is an indication of spatial working memory and is calculated using a ratio of the arm choices differing from the previous two choices to total choices during the run. […] The time between the onset of exploration and entering to the alcove (Entering latency), initiation of drinking from the water tube (Drinking latency), and the number of grid-line crossing during the test were measured Elevated-plus maze (EPM) was performed as described in the document (Kawasumi M et al., Eur J Neurosci (2004) 19: 2826-2838). […]

[4] = test system: Tg2576 mice; assay: Water-finding task (WFT) in Tg2576 mice; type: in vivo; details: nasal administration for 3 weeks (every other day)
Description: as §2, §3

[5] = test system: Tg2576 mice; assay: Elevated-plus maze (EPM) in Tg2576 mice; type: in vivo; details: nasal administration for 3 weeks (every other day)
Description: as §2, §3

[6] = test system: STAT3; assay: Anti-phospho-STAT3 staining of hippocampus of Tg2576 and wild-type mice after Colivelin administration; type: in vivo; details: for STAT3 phosphorylation in Tg2576 hippocampus (anti-phospho-STAT3 staining): Tg2576 mice after 3 weeks nasal administration
Description: The brain sections of Tg2576 mice to which Colivelin had been administered were collected, paraffin-embedded samples were prepared therefrom, and then anti-phospho-STAT3 staining was performed. FIGS. 5A and 5B denote wild-type mice to which a vehicle had been administered; FIGS. 5C and 5D denote wild-type mice to which Colivelin had been administered; FIGS. 5E and 5F denote Tg2576 to which the vehicle had been administered; and FIGS. 5G and 5H denote the hippocampus of Tg2576 to which Colivelin had been administered.
Immunohistochemical analysis was performed as described in the document (Yamada M et al., Behav Brain Res (2005) 164: 139-146; Chiba T et al., J Neurosci (2005) 25: 10252-10261). Mice were transcardially perfused with phosphate buffered saline (PBS) and then perfused with 4% paraformaldehyde (PFA). Paraffine-embedded sections or fresh frozen sections, each having a thickness of 10 μm, were prepared. Immunohistochemical detection was performed with anti-phospho-STAT3 antibody (1:100 dilution). Staining images were visualized with the ABC method (Vectastain Elite Kit, Vector, Calif. U.S.A.) or Tyramide signal enhancer kit (Perkin-Elmer).
We confirmed STAT3 activation in the brains of mice to which Colivelin had been nasally administered twice every 24 hours (FIGS. 3A-D). […] We also confirmed STAT3 phosphorylation in an in vitro experiment using PC12 cells. […] To confirm the therapeutic effect of STAT3 activation, an experiment (nasal administration of Colivelin to mice) was conducted for Tg2576 mice, which had been tested by Y-maze test (YM) and confirmed to have memory disorder at 15 months of age (FIG. 4A, left panel). After 3 weeks of administration (administered every other day), their cognitive functions were analyzed by YM, water-finding task (WFT), and elevated-plus maze (EPM). […] We performed phospho-STAT3 immunostaining using the brains of these mice (FIG. 5). We observed significant loss of phospho-STAT3 immunoreactivity in the control Tg2576 mice to which the vehicle had been administered, compared with the wild-type mice.

[7] = test system: STAT3; details: reported in Hashimoto 2005, Chiba 2005; cited from earlier work

Question: For IL-6: interleukin-6, which “STAT3 phosphorylation (phosphorylated STAT3 vs total STAT3, immunoblot)” value [1] is on record?
Answer: STAT3 had been phosphorylated; also recorded: STAT3 is phosphorylated

Question: For SALLRSIPAPAGASRLLLLTGEIDLP [Colivelin], which “STAT3 phosphorylation in cerebral cortex (anti-phospho-STAT3 staining)” value [2] is on record?
Answer: no significant changes were observed; also recorded: no significant differences were confirmed

Question: And the “STAT3 phosphorylation in hippocampus (anti-phospho-STAT3 staining)” value [2]?
Answer: Significant STAT3 phosphorylation was observed; also recorded: Hippocampus-predominant STAT3 phosphorylation

Question: And the “STAT3 phosphorylation (phosphorylated STAT3 vs total STAT3, immunoblot)” value [1]?
Answer: STAT3 had been phosphorylated; also recorded: STAT3 is phosphorylated

Question: What about the “Spontaneous alternation behavior % (SA %), spatial working memory” value [3] of the same molecule?
Answer: significantly improved; also recorded: improvement in cognitive functions was confirmed

Question: What about the “WFT indices of memory including drinking latency, entering latency, and crossing” value [4] of the same molecule?
Answer: significant amelioration was observed; also recorded: improvement in cognitive functions was confirmed

Question: What about the “EPM (transfer latency, 1st stay, time spent in open arms)” value [5] of the same molecule?
Answer: No significant differences were observed; also recorded: no significant changes were observed

Question: And the “STAT3 phosphorylation in Tg2576 hippocampus (anti-phospho-STAT3 staining)” value [6]?
Answer: levels close to those in the case of wild-type mice to which the vehicle had been administered

Question: And the “STAT3 phosphorylation in Tg2576 hippocampus (anti-phospho-STAT3 staining)” value ([6]; listed as Coliverlin)?
Answer: recovery of phospho-STAT3 immunoreactivity

Question: What about the “STAT3 phosphorylation levels in wild-type hippocampus (anti-phospho-STAT3 staining)” value ([6]; wild-type mice after Colivelin administration) of the same molecule?
Answer: slightly increased

Question: What about the “In vitro STAT3 activation / suppression of cell death” value [7] of the same molecule?
Answer: activates in vitro STAT3 so as to suppress cell death

B1: CNTF: ciliary neurotrophic factor (protein, UniProt P26441 1-200, looked up)
Ciliary neurotrophic factor: MAFTEHSPLTPHRRDLCSRSIWLARKIRSDLTALTESYVKHQGLNKNINLDSADGMPVASTDQWSELTEAERLQENLQAYRTFHVLLARLLEDQQVHFTPTEGDFHQAIHTLLLQVAAFAYQIEELMILLEYKIPRNEADGMPINVGDGGLFEKKLWGLKVLQELSQWTVRSIHDLRFISSHQTGIPARGSHYIANNKKM
Question: Which “STAT3 phosphorylation (phosphorylated STAT3 vs total STAT3, immunoblot)” value [1] does the source give for B1 here?
Answer: STAT3 had been phosphorylated; also recorded: STAT3 is phosphorylated
